For one data set, the system named is dyspareunia. To be noted: cited from earlier work.
The nature of data set [1]: Estradiol solubility in solubilizing agents (HPLC). Type of data set: physicochemical. As to conditions: solubility of estradiol in the solubilizing agent, equilibrated three days. Here is the method: Initial solubility was measured by dissolving micronized estradiol into various solubilizing agents until the estradiol was saturated (the estradiol/solubilizing agent equilibrated for three days), filtering the undissolved estradiol, and analyzing the resulting pharmaceutical composition for estradiol concentration by HPLC.

The conditions of data set [2]: solubility of estradiol in the solubilizing agent; * denotes literature reference; cited from earlier work.

Consider `OCCOc1ccc(/C(=C(/CCCl)c2ccccc2)c2ccccc2)cc1` [ospemifene], for which, in the data set with dyspareunia (12-week study), the “vaginal discharge, frequency relative to the placebo group” value is on record as “more than 6 times”. Moreover, in the data set on dyspareunia (human, in vivo), the “week until which statistically significant improvements of dyspareunia were not observed” value was 12 week.
Take `CCOCCOCCO` [TRANSCUTOL HP, 2-(2-ethoxyethoxy)ethanol]: the “Solubility” value in data set [1] stood at 141 mg/g.
In the case of `CC(O)CO` (stereo not shown) [Propylene Glycol], the “Solubility (mg/g)” value in data set [2] was 75* mg/g.

Source of the values: patent US20220047609A1, “VAGINAL INSERTED ESTRADIOL PHARMACEUTICAL COMPOSITIONS AND METHODS” (THERAPEUTICSMD, INC., priority 2012, published 2022).
